# Entries after “also recorded” stand apart in the source; their conditions may differ. Like-named read-outs stand apart in the source and are kept apart here.
# Experiments:
# estradiol (Ez) [1] = assay: Test (1) serum estradiol (Ez) reduction, subcutaneous administration, PMSG-treated rats, radioimmunoassay; assay type: in vivo, SD strain female rats; conditions: for Ez-reducing effect: compared with the control group, in both cases of subcutaneous administration (50 mg/kg) and oral administration (100 mg/kg, Test (2)); for Ez concentration in serum (average): subcutaneous, 50 mg/kg, 3 hours after administration, PMSG-treated rats, 5 per group, control (HPC) 0.572
# Method: (§1) In this Test Example, effects of administration of 6-OA and 6-enol ester compounds thereof on estradiol (Ez) reduction were examined.
# 20 SD strain female rats of 8-week old were used as test animals. They were divided into four groups each consisting of 5 rats. To all the rats was subcutaneously injected pregnant mare serum gonatropin (PMSG) in an amount of 100 IU/body once every other day (6 times in total). In the beforenoon of the next day of the final (6th) administration of PMSG, 0.5 ml of a solvent, 50 mg/kg of 6-OA, 50 mg/kg of 6-OAp and 50 mg/kg of 6-OAb were subcutaneously administered to group I (control group), group II, group III and group IV, respectively.
# After 3 hours from the administration, the rats were subjected to abdomen opening under etherization and then to exsanguination from the main vein. The blood collected from each rat was subjected to serum separation, and the Ez in the serum was determined by radioimmunoassay.
# A physiological saline solution containing 0.3% of hydroxy propyl cellulose (HPC) was used as the solvent. 6-OA, 6-OAp and 6-OAb were each suspended in the solvent in such a concentration that the administration amount of the resulting suspension per rat became 0.5 ml.
# estradiol (Ez) [2] = assay: Test (2) serum estradiol (Ez) reduction, oral administration, PMSG-treated rats, radioimmunoassay; assay type: in vivo, SD strain female rats; conditions: 100 mg/kg, 6 hours after administration, 5 per group, control (HPC) 0.522
# Method: as §1
# The type, age, number and grouping of test animals were the same as in Test (1).
# All of the rats were subcutaneously injected with PMSG, in the same manner as in Test (1), in an amount of 100 IU/body once every other day (6 times in total).
# Before noon of the next day of the final (6th) administration of PMSG, 0.5 ml of a solvent, 100 mg/kg of 6-OA, 100 mg/kg of 6-OAp and 100 mg/kg of 6-OAb were orally administered to group I (control group), group II, group III and group IV, respectively.
# Aftr 6 hours from the administration, the rats were subjected to exsanguination. The blood collected from each rat was subjected to serum separation, and the Ez in the serum was determined by radioimmunoassay.
# The solvent used was the same as in Test (1). 6-OA, 6-OAp and 6-OAb were each suspended in the solvent in such a concentration that the administration amount of the resulting suspension per rat became 0.5 ml.
# [3] = test system: aromatase (a steroidogenesis enzyme); conditions: known; Japanese Patent Application Laid-Open Nos. 192794/1988, 131193/1989; cited from earlier work
# [4] = animal toxicity tests (LD50)
# [5] = test system: experimental endometriosis; assay: effect on model rats of endometriosis (cysts in endometrium autoplanted under renal capsule); assay type: in vivo, SD strain female rats; conditions: 100 mg/kg/day
# Source text: In this Test example, effect of administration of 6-OAp on model rats of endometriosis was examined.
# SD strain female rats of 7-week old weighing 170-210 g were used as test animals. In these rats, an endometrial segment (about 5 mm×5 mm) was removed from the left uterine horn and autoplanted under the left renal capsule, and formation of cysts in the transplanted endometrium was examined. Those rats which had developed cysts of 0.5-2.0 mm in height in the transplanted endometrium, were used for test.
# The rats were divided into three groups. To group I (control group) was orally administered a physiological saline solution containing 0.3% of hydroxy propyl cellulose (HPC) daily in an amount of 0.5 ml/day. To group II was orally administered 6-OAp daily in an amount of 100 mg/kg/day. In this case, 6-OAp was suspended in a physiological saline solution containing 0.3% of HPC in such a concentration that the administration amount of the resulting suspension per rat became 0.5 ml. Group III (positive control) was subjected to ovary removal.
# Each rat was subjected to abdomen opening after 3 weeks from the start of administration or after the ovary removal and examined for the presence of cysts.
# Chi-square test was used for the statistical analysis of the test data obtained.
# [6] = cited from earlier work
Compound,Ez-reducing effect (estradiol (Ez) [1]),Ez concentration in serum (average) (estradiol (Ez) [1]),Ez concentration in serum (average) (estradiol (Ez) [2]),further results
"C[C@]12CCC(=O)C=C1C(=O)C[C@@H]1[C@@H]2CC[C@]2(C)C(=O)CC[C@@]12O [6-OA, 14α-Hydroxy-4-androstene-3,6,17-trione]",strong Ez-reducing effect,0.262 ng/mL,0.291 ng/mL,aromatase-inhibitory activity [3]: strong aromatase-inhibitory activity; toxicity ([4]; animal tests): very low toxicity; LD50 ([4]; in vivo): > 2000 mg/kg
C[C@]12CCC(=O)C=C1C(OC(=O)c1ccccc1)=C[C@@H]1[C@@H]2CC[C@]2(C)C(=O)CC[C@@]12O [6-OAb],strong Ez-reducing effect,0.390 ng/mL,0.422 ng/mL,–
"CCC(=O)OC1=C[C@@H]2[C@H](CC[C@]3(C)C(=O)CC[C@@]23O)[C@@]2(C)CCC(=O)C=C12 [6-OAp, 14α-Hydroxy-androsta-4,6-diene-3,17-dione-6-propionate]",strong Ez-reducing effect; also recorded: stronger Ez-reducing effect than the 6-OA group and the 6-OAb group,0.230 ng/mL,0.226 ng/mL,"Disappearance (of cysts) ([5]; oral, 3 weeks, control 9%, ovary-removed 100, significant at 5% level relative to control group (Chi-square)): 41%; Cysts absent ([5]; oral, 3 weeks, total 22 rats, control 2 of 22, significant at 5% level relative to control (Chi-square)): 9 rats; Cysts present ([5]; oral, 3 weeks, total 22 rats, control 20 of 22): 13 rats; effect on experimental endometriosis of rats ([5]; orally administered daily for 3 weeks): effective"
CCNC(=O)[C@@H]1CCCN1C(=O)[C@H](CCCNC(=N)N)NC(=O)[C@H](CC(C)C)NC(=O)[C@@H](COC(C)(C)C)NC(=O)[C@H](Cc1ccc(O)cc1)NC(=O)[C@H](CO)NC(=O)[C@H](Cc1c[nH]c2ccccc12)NC(=O)[C@H](Cc1cnc[nH]1)NC(=O)[C@@H]1CCC(=O)N1 [buserelin],–,–,–,"side effects ([6]; treatment of endometriosis, prior art): hyposexuality, hot flushes and the like"
C#C[C@]1(O)CC[C@H]2[C@@H]3CCC4=Cc5oncc5C[C@]4(C)[C@H]3CC[C@@]21C [danazol],–,–,–,"side effects ([6]; in vivo): dyshepatia, masculinization and the like"
